{"source": "patent US20090304816A1", "about": "“METHOD AND COMPOSITION FOR TREATING AND DIAGNOSING RESTLESS LEGS SYNDROME” (CEREUSCIENCE AB, priority 2005, published 2009)", "key": {"[1]": {"tested_on": "patients with moderate to severe RLS/PMLS", "details": "pramipexole 0.35 mg once daily evening dose for 21 days", "method": "(§3) Due to remaining RLS complaints iron sucrose therapy in the dosage 500 mg i.v. twice, was introduced during one week (FIG. 1; C)."}, "[2]": {"tested_on": "patients with moderate to severe RLS/PMLS", "details": "both patients; pramipexole 0.35 mg once daily for 21 days", "method": "as §3"}, "[3]": {"tested_on": "patients with moderate to severe RLS/PMLS", "experiment": "IRLSS score in two patients with RLS/PLMS, Example 1", "format": "in vivo", "from_the_text": "(§1) RLS and PLMS are typically diagnosed by patient history and standardized questionnaires as well as by polysomnographic evaluation."}, "[4]": {"tested_on": "patient with clinical symptoms of RLS", "experiment": "Side effects and augmentation in a third patient with RLS, Example 2", "format": "in vivo", "details": "iron dextran 200 mg daily", "description": "(§2) A subsequent clinical observational study included a patient with clinical symptoms of RLS and an IRLSS score of 26 on the diagnostic evaluation under treatment with L-dopa (levodopa) and carbidopa (Sinernet®, fixed combination dosage of 100 mg L-dopa and 25 mg carbidopa) (FIG. 2; A). The patient needed to be treated with altogether three tablets per evening in order to obtain acceptable symptom relief (IRLSS score 4. FIG. 2; B). […] An attempt to discontinue dopaminergic treatment altogether failed. Following this discontinuation there was a substantial symptom relapse (IRLSS score 15. FIG. 2; E)."}, "[5]": {"tested_on": "patient with clinical symptoms of RLS", "experiment": "IRLSS score in a third patient with RLS, Example 2", "format": "in vivo", "details": "iron dextran, after discontinuation of dopaminergic treatment (FIG. 2; E)", "description": "as §1, §2"}}, "note": "Read-outs that look alike come from different tables or passages of the source.", "data": [{"molecule": "CCCN[C@H]1CCc2nc(N)sc2C1", "note": "[Pramipexole]", "values": [{"measurement": "PLMI", "setting": "[1]; patient with baseline PLMI 3", "result": 0}, {"measurement": "PLMI", "setting": "[1]; patient with baseline PLMI 17", "result": 2}, {"measurement": "side effects", "setting": "[2]", "result": "No side effects were reported"}, {"measurement": "IRLSS score", "setting": "[3]; patient with baseline IRLSS 28, pramipexole 0.35 mg once daily, day 21 (FIG. 1; B)", "result": 17}, {"measurement": "IRLSS score", "setting": "[3]; patient with baseline IRLSS 30, pramipexole 0.35 mg once daily, day 21 (FIG. 1; B)", "result": 15}]}, {"molecule": "iron dextran", "values": [{"measurement": "adverse effects", "setting": "[4]", "result": "did not cause any adverse effects"}, {"measurement": "IRLSS score", "setting": "[5]", "result": 15}]}, {"molecule": "iron sucrose", "values": [{"measurement": "IRLSS score", "setting": "[3]; patient with baseline IRLSS 28, after iron sucrose infusions, pramipexole discontinued for one week (FIG. 1; D)", "result": 18}, {"measurement": "IRLSS score", "setting": "[3]; patient with baseline IRLSS 30, after iron sucrose infusions, pramipexole discontinued for one week (FIG. 1; D)", "result": 14}]}]}
